From patent US20260000698A1 (priority 2022, published 2026)
Marks after values point to notes of the source that are not given here.

Assays:
[1] = system: A549/ACE2/TMPRSS2 cells; assay: in vitro; conditions: A549/ACE2/TMPRSS2 cells
Protocol: Percentage of infected cells was determined by dividing the number of infected cells by the total number of cells per well. The percentage of infected cells and total number of cells for each treatment was plotted into GraphPad prism (GraphPad Software; San Diego, CA, USA) to perform a non-linear regression analysis, generate infectious dose-response curves and to calculate EC50 and CC50 values.
Viability assays for the non-infected A549/ACE2/TMPRSS2 cells were performed using the 3-(4,5-dimethylthiazol-2-yl)-5-(3-carboxymethoxyphenyl)-2-(4-sulfophenyl)-2H-tetrazolium (MTS)-based tetrazolium reduction CellTiter 96 Aqueous Non-Radioactive cell proliferation assay (Promega G5430; Madison, WI) as described. Assays were conducted using parallel plates to those used in the immunofluorescence assay. Experimental details (cell line, number of cells seeded and incubation time) corresponded to those used in the immunofluorescence assay above. The data obtained were used to calculate the CC50 value using GraphPad Prism software.

[2] = system: SARS-CoV-2 isolate USA-WA1/2020
[3] = system: SARS-CoV-2 isolate USA-WA1/2020; assay: microbe, parasite or virus in culture; conditions: Severe acute respiratory syndrome coronavirus 2, A549-ACE2, 48 h
[4] = Solubility as observed in antiviral testing
[5] = biological target: SARS-CoV-2 Nsp14 MTase (Severe acute respiratory syndrome coronavirus 2, UniProt P0DTD1); assay: biochemical; type: biochemical
[6] = Plasma stability assay, human plasma; type: in vitro ADME
Protocol: (§1) Plasma stability assay. The plasma stability assay was performed in triplicate by incubating each selected compound (1 μmol/L final concentration) in normal mouse (CD-1) or human plasma (Innovative Research; Novi, MI, USA) diluted to 80% with 0.1 mol/L potassium phosphate buffer (pH 7.4) at 37° C. At 0, 1, 3, 6, and 24 h, a 50 μL aliquot of the plasma mixture was taken and quenched with 150 μL of acetonitrile containing 0.1% formic acid. The samples were then vortexed and centrifuged at 15,000 rpm (Eppendorf centrifuge 5424R; Enfield, CT, USA) for 5 min. The supernatants were collected and analyzed by LC-MS/MS to determine the in vitro plasma half-life (t1/2).

[7] = Plasma stability assay, mouse plasma; type: in vitro ADME, mouse (CD-1)
Protocol: as §1

[8] = Parallel artificial membrane permeability assay (PAMPA); type: in vitro ADME
Protocol: Parallel artificial membrane permeability assay (PAMPA).^5 The membrane permeability of selected compounds was evaluated using the Corning® BioCoat™ Pre-coated PAMPA Plate System (Corning 353015; Glendale, AZ, USA). The pre-coated plate assembly, which was stored at −20° C., was taken to thaw for 30 min at room temperature. The permeability assay was carried out in accordance with the manufacturer's protocol. Briefly, the 96-well filter plate, pre-coated with lipids, was used as the permeation acceptor and a matching 96 well receiver plate was used as the permeation donor. Compound solutions were prepared by diluting the 10 mmol/L DMSO stock solutions with 10% methanol in DPBS to a final concentration of […]. The compound solutions were added to the wells (300 μL/well) of the receiver plate and DPBS with 10% methanol was added to the wells (200 μL/well) of the pre-coated filter plate. The filter plate was then coupled with the receiver plate and the plate assembly was incubated at 25° C. without agitation for 5 h. At the end of the incubation, the plate was separated and the final concentrations of compounds in both donor wells and acceptor wells were analyzed using LC-MS/MS. Permeability of a compound was calculated using the Eq. (1):
where A=filter area (0.3 cm^2), VD=donor well volume (0.3 mL), VA=acceptor well volume (0.2 mL), t=incubation time (seconds), CA(t)=compound concentration in acceptor well at time t, CD(t)=compound concentration in donor well at time t, and Ceq was calculated using the Eq. (2): […]
A cutoff criterion of Pe value at […] was used to classify the compounds into high and low permeability according to the literature report of this PAMPA plate system^1.

[9] = not given; remark: listed apart in the source
[10] = Liver S9 stability assay, human liver S9; conditions: n = 2, mean±SD
[11] = Liver S9 stability assay, mouse liver S9; conditions: n = 2, mean±SD

| SMILES | CC50 [1] [µM] | antiviral activity ([2]; A549 AT cells) | EC50 [3] [µM] | solubility [4] | MTase inhibitory activity [5] | IC50 ([5]; LC-MS/MS detection of SAH, read-out: MTase IC50) [µM] | Plasma Stability t1/2, Human ([6]; human plasma, 37° C., n = 3) | stability in human plasma ([6]; human, plasma) | Plasma Stability t1/2, Mouse ([7]; mouse plasma, 37° C., n = 3) | stability in mouse plasma ([7]; mouse, plasma) | passive diffusion rate in PAMPA ([8]; PAMPA) | PAMPA Permeability Pe ([8]; n = 6, mean±SD, 25° C., 5 h) | therapeutic index (TI=CC50/EC50) ([2]; CC50/EC50) | stability in human liver S9 fractions | stability in mouse S9 phase I reactions [9] | Human Liver S9 Stability t1/2, Phase I ([10]; cofactor NADPH) [h] | Human Liver S9 Stability t1/2, Phase II ([10]; cofactor UDPGA) | Mouse Liver S9 Stability t1/2, Phase I ([11]; cofactor NADPH) [h] | Mouse Liver S9 Stability t1/2, Phase II ([11]; cofactor UDPGA) |
| --- | --- | --- | --- | --- | --- | --- | --- | --- | --- | --- | --- | --- | --- | --- | --- | --- | --- | --- | --- |
| CC(C)C(=O)O[C@@H]1[C@H](OC(=O)C(C)C)[C@@H](CNS(=O)(=O)c2ccc3ccccc3c2)O[C@H]1n1cnc2c(N)ncnc21 [Compound 7, (2R,3R,4R,5R)-2-(6-Amino-9H-purin-9-yl)-5-((naphthalene-2-sulfonamido)methyl)tetrahydrofuran-3,4-diyl bis(2-methylpropanoate)] | > 100 | showed antiviral activity | ~97 | low solubility |  |  |  |  |  |  |  |  |  |  |  |  |  |  |  |
| Nc1ncnn2c([C@@H]3O[C@H](CNS(=O)(=O)c4ccc5ccccc5c4)[C@@H](O)[C@H]3O)ccc12 [Compound 10, N-(((2R,3S,4R,5S)-5-(4-Aminopyrrolo[2,1-f][1,2,4]triazin-7-yl)-3,4-dihydroxytetrahydrofuran-2-yl)methyl)naphthalene-2-sulfonamide] | > 100 |  | 0.72 |  | comparable to that of 3 | 0.093 | >24^d h | similarly stable | >24^d h | similarly stable | equally low | 0.2 ± 0.1 10^−6 cm/s | greater than 139 | similarly stable | surprisingly labile | 14 ± 3.5 | >45^e min | 0.482 ± 0.005 | >45^e min |
